# Key:
# MCAO/R rats (MCAO/R大鼠) [1] = assay: TTC staining of cerebral infarct volume in MCAO/R rats, 24 h after reperfusion (1.2); format: in vivo, rat; conditions: i.p. at reperfusion; for cerebral infarct volume vs. model group: **P<0.01 vs. model group, n=7~11
# MCAO/R rats (MCAO/R大鼠) [2] = assay: Neurological function score (mNSS) in MCAO/R rats 24 h after reperfusion (1.3); format: in vivo, rat; conditions: i.p. at reperfusion; for mNSS score vs. model group: **P<0.01 vs. model group, n=7~11
# MCAO/R rats (MCAO/R大鼠) [3] = assay: Survival rate of MCAO/R rats, 14-day dosing (2.2); format: in vivo, rat; conditions: treated groups (10, 30, 50 mg/kg); dosing from 24 h after reperfusion, once daily for 14 days; n=9~18; compared with model group (low survival)
# [4] = test system: histone deacetylase, HDAC (组蛋白去乙酰化酶, HDAC); conditions: in vitro; cited from earlier work
# [5] = test system: certain transformed cells (某些转化细胞); conditions: in vitro, nanomolar concentration (<250nM); cited from earlier work
# tumor cells (肿瘤细胞) = conditions: cited from earlier work
# [6] = treated subjects in clinical studies; cited from earlier work
# MCAO/R rats (MCAO/R大鼠) [7] = assay: Foot-fault test in MCAO/R rats, days 1, 3, 7, 14 (2.4); conditions: from day 7; treated groups (10, 30, 50 mg/kg), once daily for 14 days from 24 h after reperfusion; *P<0.05, **P<0.01 vs. model group; n=6~9
# MCAO/R rats (MCAO/R大鼠) [8] = assay: Recovery of neurological function (mNSS) in MCAO/R rats, days 1, 3, 7, 14 (2.3)
smiles,measurement,setting,value
O=C(/C=C/c1cccc(S(=O)(=O)Nc2ccccc2)c1)NO [贝利司他],infarct volume vs. model group,MCAO/R rats (MCAO/R大鼠) [1]; dose group not named,能够减少MCAO/R大鼠的梗死体积
same,cerebral infarct volume vs. model group,MCAO/R rats (MCAO/R大鼠) [1]; high dose 50 mg/kg,显著降低
same,cerebral infarct volume vs. model group,MCAO/R rats (MCAO/R大鼠) [1]; medium dose 30 mg/kg,显著降低
same,neurological motor function score vs. model group,MCAO/R rats (MCAO/R大鼠) [2]; dose group not named,显著降低
same,mNSS score vs. model group,MCAO/R rats (MCAO/R大鼠) [2]; high dose 50 mg/kg,显著低于模型组
same,mNSS score vs. model group,MCAO/R rats (MCAO/R大鼠) [2]; medium dose 30 mg/kg,显著低于模型组
same,survival rate,MCAO/R rats (MCAO/R大鼠) [3],明显增高
same,concentration at which HDAC activity is inhibited,[4],< 250 nM
same,accumulation of acetylated histones and other proteins,[5],可致乙酰化组蛋白及其他蛋白积聚
same,cell cycle arrest or apoptosis of certain transformed cells,[5],诱导细胞周期停滞或某些转化细胞凋亡
same,cytotoxicity to tumor cells compared with normal cells,tumor cells (肿瘤细胞),强于正常细胞
same,most common side effects,[6],恶心、呕吐、乏力、发热和贫血
same,foot-fault rate vs. model group,MCAO/R rats (MCAO/R大鼠) [7],明显降低
same,mNSS score vs. model group,"MCAO/R rats (MCAO/R大鼠) [8]; from day 3, treated groups (10, 30, 50 mg/kg), once daily for 14 days from 24 h after reperfusion, *P<0.05, **P<0.01 vs. model group, n=6~9",显著低于模型组
same,neurological motor function,"MCAO/R rats (MCAO/R大鼠) [8]; treated groups, with increasing time of administration (once daily for 14 days)",神经运动功能恢复

# Source: patent CN114306299A, “贝利司他在制备缓解和/或治疗缺血性脑卒中药物中的应用” (Institute of Materia Medica of CAMS and PUMC, priority 2020, dated 2022)
